Assay results taken from patent US6495171B2, “Interleukin-4 production inhibitors” (Kao Corporation, priority 1999, dated 2002).

What was measured:
IL-4 production = experiment: Measurement of IL-4 production inhibiting ability (KLH-stimulated lymphocytes, ELISA); assay type: cell-based; conditions: lymph node lymphocytes of KLH-sensitized Balb/c mice, KLH 10 μg/mL, 3 days, IL-4 in supernatant by ELISA; for IC50: Mus musculus, Lymphocyte, 72 h, read-out: IC50 (concentrations at which IL-4 yields were inhibited by 50%)
Method: A 4 mg/mL solution of KLH (Keyhole Limpet Hemocyanin; product of Pierce Chemical Company) and Freund complete adjuvant FCA (Bacto Adjuvant Complete Freund; product of DIFCO) were mixed and emulsified at a volume ratio of 1:1. The resulting emulsion was subcutaneously injected at 200 μL/head to the foreleg paws and hind leg paws of Balb/c mice (female, 8 to 12 weeks old), whereby the mice were sensitized. About 7 days later, axillary and popliteal lymph nodes were excised. After the lymph nodes were washed in PBS, they were loosened between two slide glasses in RPMI medium which had been prepared by adding kanamycin and β-mercapto-ethanol to “RPMI 1640 Medium” (product of BRL) such that their final concentrations became 100 μg/mL and 100 μM, respectively, whereby a suspension of lymphocytes was prepared. The lymphocyte suspension was centrifuged twice at 1,000 rpm for 5 minutes, followed by suspension in the RPMI medium added with 10% FCS. The lymphocytes were spread at 4×10^5 lymphocytes/well over 96-well plates. Individual compounds or essential oils, which had been prepared at varied concentrations with 10% FCS-added RMPI medium, were added within a final concentration range of from 0.01 to 100 μg/mL. Subsequent to incubation at 37° C. for about 30 minutes in the presence of 5% CO2, KLH was added to give a final concentration of 10 μg/mL. After incubation at 37° C. for 3 days in the presence of 5% CO2, IL-4 in each supernatant was quantitated by ELISA.
For the ELISA quantitation, “Mice IL-4 ELISA Kit” (product of Amersham Corp.) was used. Following a protocol attached to the kit, the quantitation was conducted using recombinant IL-4 as a standard substance. IL-4 production inhibition rates of the individual compounds at the varied concentrations were calculated [100-(IL-4 yield when the sample was added/IL-4 yield in a control added only with the culture medium)×100]. From the IL-4 production inhibition rates, IC50 values (concentrations at which IL-4 yields were inhibited by 50%) were determined.

[1] = test system: allergy to house dust mite antigen; experiment: Effects on allergy to house dust mite antigen (ear swelling); assay type: in vivo, Balb/c mice; conditions: for Swelling inhibition rate (%): 20 μL topically on ear, 24 h after challenge; for inhibitory effects for allergy to the house dust mite antigen (in words): concentrations of 0.1% and 1.0%, statistically significant at 1% or 5% significance level
Method: Tape stripping was applied 8 times with an adhesive cellophane tape (product of Nichiban Co., Ltd.) to shaved abdominal parts of Balb/c mice (female). The abdominal parts were coated with 50-μL portions of a house dust mite antigen, which had been obtained by dialyzing an allergen scratch extract “DANI” (product of Torii Pharmaceutical Co., Ltd.) and then concentrating the dialyzate ten-fold by ultrafiltration, so that the mice were sensitized. One, four, five and six days later, 20 μL portions of cedrol, cumin oil and cedarwood oil of concentrations shown in Table 2 (prepared by dissolving them in 70% ethanol solution) were topically applied onto one ears, respectively, and the same amount of the solvent control (70% ethanol solution) was applied at the others. Seven days after the sensitization, the mice were challenged on the dorsal ear lobe by subcutaneous injection of 10 μL of the same angiten solution. To measure ear swelling caused by nonspecific stimulation with the house dust mite antigen, 10-μL portions of the house dust mite antigen were subcutaneously injected to one ear lobes of unsensitized mice. Three and twenty hours after the stimulation, the ear lobes of the anesthetized mice were covered with pieces of paper towel soaked with purified water of 40° C., respectively. After that, 20 μL portions of the individual compounds were topically applied to one ears, respectively, while to the other, the same amount of the solvent control were applied. Twenty-four hours after stimulation, the thicknesses of the ears were measured by a thickness gauge, and differences from the thicknesses of the corresponding ears before the stimulation were recorded as ear swellings. Each ear swelling inhibition rate (%) was determined by the following formula: [ear swelling (solvent control)−ear swelling (sample)]/[ear swelling (solvent control)−ear swelling (nonspecific stimulation by the house dust mite antigen)]×100. Differences in swelling between the ear applied with the solvent control and the corresponding ears applied with the samples, respectively, were statistically analyzed by t-test, and any difference with significance level lower than 5% was considered statistically significant.

| Molecule | IC50 (concentrations at which IL-4 yields were inhibited by 50%) (IL-4 production) | IC50 (IL-4 production) | also measured |
| --- | --- | --- | --- |
| CC(=O)C1=C(C)[C@@H]2C[C@@]3(C1)[C@H](C)CC[C@H]3C2(C)C [Acetylcedrene] | 1.60 µg/mL | – | – |
| C[C@@H]1CC[C@H]2C(C)(C)[C@H]3C[C@@]12CC[C@@]3(C)O [Cedrol] | – | 3 µg/mL | Swelling inhibition rate (%) ([1]; Concentration 0.01 W/V %): 8%; Swelling inhibition rate (%) ([1]; Concentration 0.10 W/V %): 14%; Swelling inhibition rate (%) ([1]; Concentration 1.00 W/V %): 13%; inhibitory effects for allergy to the house dust mite antigen (in words) [1]: marked effects |
| CC(=O)O[C@]1(C)CC[C@@]23C[C@@H]1C(C)(C)[C@@H]2CC[C@H]3C [Cedryl acetate] | – | 0.78 µg/mL | – |
| CC(C)=CCCC(C)CCO (stereo not shown) [Citronellol] | – | 37.3 µg/mL | – |
| C=CCc1ccc(O)c(OC)c1 [Eugenol] | – | 5.6 µg/mL | – |
| CC(C)=CCCC(C)=CCCC(C)=CCO [Farnesol] | – | 0.59 µg/mL | – |
| C[C@@H]1CC[C@@H]2[C@@H]1[C@H]1[C@@H](CC[C@@]2(C)O)C1(C)C [Globulol] | – | 1.08 µg/mL | Swelling inhibition rate (%) ([1]; Concentration 0.01 W/V %): 11%; Swelling inhibition rate (%) ([1]; Concentration 0.10 W/V %): 19%; Swelling inhibition rate (%) ([1]; Concentration 1.00 W/V %): 26%; inhibitory effects for allergy to the house dust mite antigen (in words) [1]: marked effects |
| C[C@H]1CC[C@@H](C(C)(C)O)CC2=C1CC[C@@H]2C [Guaiol] | 0.68 µg/mL | – | – |
| CC(C)c1cccc(=O)c(O)c1 [Hinokitiol] | – | 0.1 µg/mL | – |
| CC1CCC(C(C)C)C(O)C1 (stereo not shown) [Menthol] | – | 19.6 µg/mL | – |
| C[C@H]1CC[C@@]2(O)C(C)(C)[C@@H]3CC[C@@]2(C)[C@H]1C3 [Patchouli alcohol] | 0.72 µg/mL | – | – |
| CCOCC(O)COc1ccc(NC(=O)CC[S+](C)C)cc1 (stereo not shown) [Suplatast tosilate, reference compound] | – | 50 µg/mL | – |
| CC1(C)CCC[C@@]2(C)CC[C@](C)(O)CC=C12 [Widdrol] | 4.00 µg/mL | – | – |
| Cedrenol | 3.34 µg/mL | – | – |
| Epiglobulol | 1.14 µg/mL | – | – |
| Santalol | 2.40 µg/mL | – | – |
| Thujopsenol | 3.60 µg/mL | – | – |
